Results taken from patent US20150133434A1, “Compositions and Methods for Reactivating Latent Immunodeficiency Virus” (priority 2012, published 2015).
“Also recorded” adds a separate entry of the source.

How the values were obtained:
[1] = test system: latent HIV (clone R7/E-/GFP) in Jurkat T cells; assay: Reactivation of latent HIV in polyclonal Jurkat T cells (clone R7/E-/GFP), flow cytometry of GFP; type: cell-based, HIV-1
Method: A polyclonal population of Jurkat T cells containing latent HIV (clone R7/E-/GFP) was treated with increasing amounts of JQ1. This viral clone contains a frameshift mutation in the viral Env gene to prevent viral spread and expresses GFP in the Nef open reading frame, which allows separation of actively infected GFP^+ from GFP^− cells by cell sorting. GFP^− cells, which are mostly uninfected but contain a small fraction of latently infected cells with silenced HIV transcription, were treated with JQ1. Activation of transcription was measured by flow cytometry of GFP. […] Stimulation of cells with JQ1 produced up to fivefold more GFP-expressing cells than control-treated cells.
HIV clones R7/E-/GFP and NL4-3/E-/GFP-IRES-nef were derived from pR7-GFP and pNLENG1-EGFP by mutating the Env gene by inserting an early stop codon in the NdeI site. […]. Jurkat cells were spininfected with 25 ng of p24 per 10^6 cells, and GFP^− cells where collected in two rounds of cell sorting 5 and 15 days after infection. The expanded population of GFP^− cells, composed of uninfected and latently infected cells, was seeded in 96-well plates and treated with the indicated concentration of drugs in duplicates. The percentage of GFP^+ cells was detected after 24 h at the MACSQuant VYB FACS analyzer. Data are expressed as the mean percentage of GFP^+ cells, subtracting the average percentage of spontaneous GFP-reactivation in the untreated samples. (A) Jurkat cells containing latent R7/E-/GFP virus were treated with JQ1 or (R)-JQ1 in combination with Prostratin (0.5 μM), SAHA (2.5 μM), TNFα (1 ng/μl), or control at the indicated concentrations for 18 h, followed by flow cytometry analysis. […] Results represent average of two independent experiments. All treatments in (A) and (B) on the X axis are in μM.

[2] = test system: latent LTR-GFP construct in J-Lat A72 cells; assay: J-Lat A72 cells (LTR-GFP lacking Tat), flow cytometry of GFP; type: cell-based, HIV-1
Method: HEK293T and Jurkat cells were obtained from the American Type Culture Collection. J-Lat (clones A2 and A72) cell lines were described. HEK293T cells were cultured in DMEM supplemented with 10% FBS, 1% L-glutamine and 1% penicillin-streptomycin (Life Technologies). Jurkat and J-Lat cells were cultured in RPMI supplemented with 10% FBS, 1% L-glutamine, and 1% penicillin-streptomycin. TNFα (Sigma-Aldrich) was used at concentrations of 0.25 or 1 ng/ml. Human αCD3 and αCD28 (BD Biosciences) were used at concentrations of 3 and 1 μg/ml, respectively. Prostratin (Sigma) was used at a suboptimal concentration of 0.5 μM, and SAHA (NCI Chemical Carcinogen Repository, Midwest Research Institute) was used at 2.5 μM.
To determine if BET inhibition specifically activates Tat-dependent transcription, a J-Lat cell line was utilized that harbored a latent lentiviral construct expressing Tat with GFP from the HIV LTR (clone A2; LTR-Tat-IRES-GFP). […] Stimulation with JQ1 yielded up to ninefold more GFP-expressing cells than control-treated cells, and a 22-fold increase was observed when cells were co-treated with JQ1 and low doses of TNFα (FIG. 21A). […] Here, an up to 22-fold increase in GFP^+ cells resulted from JQ1 treatment alone and a 45-fold increase when TNFα was added with JQ1 (FIG. 21B). Both cell lines were also treated with prostratin and SAHA (FIG. 27).
Two latent J-Lat cell lines A2 (containing a LTR-Tat-IRES-GFP construct) or A72 (containing a LTR-GFP construct) were treated with JQ1 or (R)-JQ1 in combination with TNFα or control at the indicated concentrations for 18 h, followed by flow cytometry analysis. […] Data represent average (±SD) of three independent experiments. All treatments in (A) and (B) on the X axis are in μM.

Cc1sc2c(c1C)C(c1ccc(Cl)cc1)=N[C@@H](CC(=O)OC(C)(C)C)c1nnc(C)n1-2 [JQ1, tert-Butyl 2-((6S)-4-(4-chlorophenyl)-2,3,9-trimethyl-6H-thieno[3,2-f][1,2,4]triazolo[4,3-a][1,4]diazepin-6-yl)acetate]
GFP-expressing cells relative to control-treated cells ([1]; JQ1 alone): up to fivefold | effect of adding JQ1 with SAHA ([1]; co-treatment with SAHA 2.5 μM, FIG. 20A, B (both viral clones)): no additive or synergistic effects | effect of co-treatment with TNFα on the JQ1 effect ([1]; co-treatment with TNFα, FIG. 20A, B (both viral clones)): very modest enhancement | effect of adding JQ1 with prostratin ([1]; co-treatment with prostratin 0.5 μM, FIG. 20A, B (both viral clones)): Enhanced activation | reactivation of HIV-1 (GFP+ cells) ([1]; compound alone, increasing amounts): reactivated HIV-1 in a dose-dependent manner | activation of HIV transcription (GFP) ([2]; 18 h): increased GFP expression; also recorded: reactivated HIV-1 in a dose-dependent manner | effect of adding SAHA to JQ1 ([2]; FIG. 27): only a very modest increase | effect of adding prostratin to JQ1 ([2]; FIG. 27): enhanced the JQ1 effect | increase in GFP+ cells ([2]; JQ1 alone): up to 22 fold | increase in GFP+ cells ([2]; TNFα added with JQ1): 45 fold
